How the values were obtained:
Assay type in all cases: in vivo
[1] = test system: common (oilseed) sunflower (Helianthus annuus); assay: Test B pre-/postemergence plant response; conditions: Preemergence
Outline: (§1)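 Seeds were sown and sprayed preemergence, while plants at 2 to 18 cm (1- to 4-leaf stage) got postemergence sprays. Compounds were formulated in a non-phytotoxic solvent mixture with surfactant. After 13 to 15 days in a greenhouse, injury was rated visually against untreated controls, 0 (no effect) to 100 (complete control).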

[2] = test system: giant foxtail (Setaria faberii); assay: Test B pre-/postemergence plant response; conditions: for Foxtail, Giant plant response rating: 8 g ai/ha
Outline: as §1

[3] = test system: soybean (Glycine max); assay: Test B pre-/postemergence plant response
Outline: as §1

[4] = test system: downy bromegrass (Bromus tectorum); assay: Test B pre-/postemergence plant response; conditions: for Bromegrass, Downy plant response rating: 8 g ai/ha
Outline: as §1

[5] = test system: goosegrass (Eleusine indica); assay: Test B pre-/postemergence plant response; conditions: for Goosegrass plant response rating: 8 g ai/ha
Outline: as §1

[6] = test system: Russian thistle (Salsola iberica); assay: Test B pre-/postemergence plant response; conditions: Preemergence; for Plant response rating, Russian Thistle: scale 0 to 100 (0 no effect, 100 complete control)
Outline: as §1

[7] = test system: wheat (Triticum aestivum); assay: Test B pre-/postemergence plant response; conditions: for Wheat plant response rating: 8 g ai/ha
Outline: as §1

[8] = test system: surinam grass (Brachiaria decumbens); assay: Test B pre-/postemergence plant response; conditions: for Surinam Grass plant response rating: 8 g ai/ha
Outline: as §1

[9] = test system: eastern black (E.B.) nightshade (Solanum ptycanthum); assay: Test B pre-/postemergence plant response; conditions: Preemergence
Outline: as §1

[10] = test system: morningglory (Ipomoea coccinea); assay: Test B pre-/postemergence plant response; conditions: for Morningglory plant response rating: 8 g ai/ha
Outline: as §1

[11] = test system: barnyardgrass (Echinochloa crus-galli); assay: Test B flooded paddy test plant response
Outline: (§2)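 Step one: raise plants to 2 leaves. Step two: flood pots 3 cm over the soil and apply compound into the water, keeping this depth. Step three: after 13–15 greenhouse days, score visually versus controls, 0–100, where 100 means complete control.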

[12] = test system: rice (Oryza sativa); assay: Test B flooded paddy test plant response
Outline: as §2

[13] = test system: umbrella sedge (Cyperus difformis); assay: Test B flooded paddy test plant response
Outline: as §2

[14] = test system: ducksalad (Heteranthera limosa); assay: Test B flooded paddy test plant response
Outline: as §2

[15] = 16 g ai/ha, scale 0 to 100 (0 no effect, 100 complete control)
[16] = 31 g ai/ha, scale 0 to 100 (0 no effect, 100 complete control)
[17] = Postemergence, 16 g ai/ha, scale 0 to 100
[18] = Postemergence, 31 g ai/ha, scale 0 to 100
[19] = Postemergence, 62 g ai/ha, scale 0 to 100, 0 no effect, 100 complete control
[20] = Preemergence, 16 g ai/ha, scale 0 to 100 (0 no effect, 100 complete control)
[21] = Preemergence, 31 g ai/ha, 0 to 100 scale, 0 no effect, 100 complete control
[22] = Preemergence, 62 g ai/ha, scale 0 to 100
[23] = Preemergence, 31 g ai/ha, scale 0 to 100 (0 no effect, 100 complete control)
[24] = Preemergence, 62 g ai/ha, 0 to 100 scale, 0 no effect, 100 complete control
[25] = Flood (flooded paddy test), 62 g ai/ha, scale 0 to 100, 0 no effect, 100 complete control
[26] = Flood (flooded paddy test), 125 g ai/ha, scale 0 to 100, 0 no effect, 100 complete control
[27] = Flood (flooded paddy test), 250 g ai/ha, scale 0 to 100, 0 no effect, 100 complete control
[28] = Flood, 31 g ai/ha, scale 0 to 100

Cn1ncc(O)c(-n2nc(-c3ccc(Cl)cc3)cc2C2CC2)c1=O [Compound 45]
Plant response rating, Sunflower [1, 15]: 0 | Plant response rating, Sunflower [1, 16]: 0 | Plant response rating, Sunflower ([1]; 62 g ai/ha, scale 0 to 100): 0 | Sunflower plant response rating ([1]; 8 g ai/ha, scale 0 to 100): 0 | Foxtail, Giant plant response rating ([2]; postemergence, 0-100 scale): 90 | Plant response rating, Foxtail, Giant [2, 17]: 98 | Plant response rating, Foxtail, Giant [2, 18]: 100 | Plant response rating, Foxtail, Giant [2, 19]: 100 | Plant response rating, Foxtail, Giant [2, 20]: 0 | Plant response rating, Foxtail, Giant [2, 21]: 35 | Plant response rating, Foxtail, Giant [2, 22]: 45 | Foxtail, Giant plant response rating ([2]; Preemergence, scale 0 to 100): 0 | Soybean plant response rating ([3]; 8 g ai/ha, postemergence, 0-100 scale): 0 | Plant response rating, Soybean [3, 17]: 0 | Plant response rating, Soybean [3, 18]: 0 | Plant response rating, Soybean [3, 19]: 0 | Plant response rating, Soybean [3, 20]: 0 | Plant response rating, Soybean [3, 22]: 65 | Bromegrass, Downy plant response rating ([4]; postemergence, 0-100 scale): 30 | Plant response rating, Bromegrass, Downy [4, 17]: 60 | Plant response rating, Bromegrass, Downy [4, 18]: 90 | Plant response rating, Bromegrass, Downy [4, 19]: 90 | Plant response rating, Bromegrass, Downy [4, 20]: 50 | Plant response rating, Bromegrass, Downy [4, 21]: 80 | Plant response rating, Bromegrass, Downy [4, 22]: 90 | Bromegrass, Downy plant response rating ([4]; Preemergence, scale 0 to 100): 0 | Goosegrass plant response rating ([5]; postemergence, 0-100 scale): 65 | Plant response rating, Goosegrass [5, 17]: 70 | Plant response rating, Goosegrass [5, 18]: 80 | Plant response rating, Goosegrass [5, 19]: 95 | Plant response rating, Goosegrass [5, 20]: 0 | Plant response rating, Goosegrass [5, 21]: 0 | Plant response rating, Goosegrass [5, 22]: 0 | Goosegrass plant response rating ([5]; Preemergence, scale 0 to 100): 0 | Plant response rating, Russian Thistle ([6]; 16 g ai/ha): 0 | Plant response rating, Russian Thistle ([6]; 31 g ai/ha): 0 | Russian Thistle plant response rating ([6]; 8 g ai/ha, scale 0 to 100): 0 | Wheat plant response rating ([7]; postemergence, 0-100 scale): 60 | Plant response rating, Wheat [7, 17]: 85 | Plant response rating, Wheat [7, 18]: 85 | Plant response rating, Wheat [7, 19]: 98 | Plant response rating, Wheat [7, 20]: 30 | Plant response rating, Wheat [7, 23]: 70 | Plant response rating, Wheat [7, 24]: 95 | Wheat plant response rating ([7]; Preemergence, scale 0 to 100): 0 | Surinam Grass plant response rating ([8]; postemergence, 0-100 scale): 75 | Plant response rating, Surinam Grass [8, 17]: 85 | Plant response rating, Surinam Grass [8, 18]: 98 | Plant response rating, Surinam Grass [8, 19]: 100 | Plant response rating, Surinam Grass [8, 20]: 20 | Plant response rating, Surinam Grass [8, 23]: 40 | Plant response rating, Surinam Grass [8, 24]: 90 | Surinam Grass plant response rating ([8]; Preemergence, scale 0 to 100): 0 | Plant response rating, Nightshade, E. B. [9, 15]: 0 | Plant response rating, Nightshade, E. B. [9, 16]: 0 | Plant response rating, Nightshade, E. B. ([9]; 62 g ai/ha, scale 0 to 100): 0 | Nightshade, E. B. plant response rating ([9]; 8 g ai/ha, scale 0 to 100): 0 | Morningglory plant response rating ([10]; postemergence, 0-100 scale): 0 | Plant response rating, Morningglory [10, 17]: 0 | Plant response rating, Morningglory [10, 18]: 0 | Plant response rating, Morningglory [10, 19]: 0 | Plant response rating, Morningglory [10, 20]: 0 | Plant response rating, Morningglory [10, 23]: 0 | Plant response rating, Morningglory [10, 22]: 0 | Morningglory plant response rating ([10]; Preemergence, scale 0 to 100): 0 | Plant response rating, Barnyardgrass [11, 25]: 20 | Plant response rating, Barnyardgrass [11, 26]: 60 | Plant response rating, Barnyardgrass [11, 27]: 65 | Plant response rating, Barnyardgrass [11, 28]: 20 | Plant response rating, Rice [12, 25]: 0 | Plant response rating, Rice [12, 26]: 45 | Plant response rating, Rice [12, 27]: 45 | Plant response rating, Rice [12, 28]: 0 | Plant response rating, Sedge, Umbrella [13, 25]: 0 | Plant response rating, Sedge, Umbrella [13, 26]: 0 | Plant response rating, Sedge, Umbrella [13, 27]: 65 | Plant response rating, Sedge, Umbrella [13, 28]: 0 | Plant response rating, Ducksalad [14, 25]: 0 | Plant response rating, Ducksalad [14, 26]: 0 | Plant response rating, Ducksalad [14, 27]: 75 | Plant response rating, Ducksalad [14, 28]: 0
